# Entries after “also recorded” stand apart in the source; their conditions may differ.
# Assays:
# [1] = acute toxicity in mice (oral, intraperitoneal); settings: for LD50: mouse, in vivo
# [2] = phenamine hyperthermia in mice; type: in vivo
# Excerpt: | Phenamine hyperthermia in
# [3] = painful irritation of rat's paw with electric current; type: in vivo, rats; settings: acetylsalicylic acid = 1
# yeast fever in rats = type: in vivo
# [4] = embryotoxic effects in rats; type: in vivo
# Excerpt: The preparation was examined for possible embryotoxic effects in rats.
# [5] = acute toxicity to anti-edematous action ratio (LD50/ED50) in mice; type: in vivo; settings: oral administration, acetylsalicylic acid = 1
# [6] = tail burning test in mice; type: in vivo; settings: for reduction of the reaction to a thermal irritant: mice
# Method: (§1) For example, the preparation introduced orally to mice in 10 and 20 mg/kg doses reduced the reaction of the mice to a thermal irritant by 47-75% an hour after administration. Acetylsalicylic acid in 40-300 mg/kg doses causes an effect equal to 37-87%.
# [7] = Aerosol-induced edema of paw in mice (acute test); type: in vivo; settings: acetylsalicylic acid = 1
# Excerpt: Aerosol-induced edema of
# paw in mice (acute test)
# [8] = Aerosol-induced edema of paw in rats (subacute test), exudative process; type: in vivo
# Excerpt: Aerosol-induced edeima of
# ry paw in rats (subacute test)
# [9] = acetic acid "writhing" in mice; type: in vivo; settings: acetylsalicylic acid = 1
# antibacterial action = settings: in contrast to brufen
# [10] = influence on organ functions and internal organs of animals; type: in vivo
# [11] = tested on: erythrocyte aggregation reaction; experiment: membrane-stabilizing effect: erythrocyte aggregation reaction caused by a gelatine solution, in vitro and in vivo; type: cell-based
# [12] = implanted sterile paper balls, granuloma weight in rats; type: in vivo; settings: 10 and 20 mg/kg
# Method: It was established in tests with rats with implanted sterile paper rolled into balls that 10 and 20 mg/kg doses of the preparation reduce the weight of the granulomas by 41-60% and, consequently, produce an inhibiting effect on proliferation processes during inflammation.
# [13] = parameters: species or system human patients; settings: human, in vivo
# Method: (§2) The course of treatment lasted 3 to 4 weeks. In individual cases, the preparation was given once daily for 1 to 5 days as a symptomatic remedy (analgesic and antipyretic).
# (§3) The effectiveness of the preparation was assessed by changes in complaints, clinical observation results (temperature, sensation of pain, local manifestations of the inflammatory process) and laboratory examination data (changes patients' peripheral blood picture, albumin fractions, glycoproteins and sialic acids content in blood serum, examination of stools for occult blood before and after treatment, etc.).
# Clinicians hold the option that tolerance to the preparation is good.
# [14] = parameters: species or system human patients; settings: human, in vivo; remark: listed apart in the source
# Excerpt: On the basis of these experimental data, the preparation was used clinically for the treatment of patients with chronic polyarthritis accompanied by gastrointestinal pathology, namely duodenal ulcer in the stage of remission. […] In view of the above, and also in view of the new preparation's general good tolerance, it may be used in patients with accompanying diseases of the organs of the alimentary system, which are contraindications to the use of most of the antiinflammatory remedies.
# [15] = comparison of activity with acetylsalicylic acid, all experimental studies; type: in vivo; settings: Table 2
# [16] = parameters: species or system rabbits; settings: rabbit, in vivo
# [17] = tested on: cells of the amnionic membrane; type: cell-based, human
# [18] = carrageenin-induced inflammatory edema, comparison with literature data; type: in vivo
# [19] = clinical trials, therapeutic effect; type: in vivo, human patients
# Excerpt: as §2
# The main group of the patients given a course of treatment (203 persons), had the following diseases: rheumatism (active phase, 1st-2nd degree, according to A. I. Nesterov's classification) affecting the joints and heart (primary and recurrent rheumocarditis, heart disease of rheumatic etiology with symptoms of cardiac decompensation, of the 1-2A degree)--76 patients; polyarthritis (rheumatoid, exacerbation of chronic infectious, acute infectious-allergic, metabolic)--89 patients; arthrosis, spondylosis, exacerbation of chronic interstitial pneumonia--9 patients.
# as §3
# [20] = in vivo
# [21] = tests in adrenalectomized animals; type: in vivo
# [22] = in vivo; remark: listed apart in the source
# [23] = comparison of analgesic ED50 values in three models (tail burning, writhing, electric current); type: in vivo; settings: acetic acid writhing (mice), electric current (rats)
# Method: as §1
# [24] = tolerance on oral administration for 2 to 4 months; type: in vivo; settings: rats, rabbits and dogs, doses equal to 5% of LD50, 30 and 70 times the human dose
# Excerpt: These doses, which are conventionally therapeutic, and equal to 5% of the LD50 for these animals, exceeded 30 and 70 times the dose recommended for humans.
# [25] = carrageenin and aerosol-induced inflammatory edema, acute tests in mice; type: in vivo; settings: single oral doses of 5 to 20 mg/kg
# acute toxicity in cats = type: in vivo
# [26] = brufen side effects, source not stated; cited from earlier work
# [27] = rheumatic heart and joint disease
structure (smiles),measurement,setting,value
"CC(=O)Oc1ccccc1C(=O)O [acetylsalicylic acid, reference compound]",enteral coefficient,[1]; mice,-1.8
same,LD50,[1]; ip,1100 mg/kg
same,LD50,[1]; po,1910 mg/kg
same,"Relative activity, antipyretic, phenamine hyperthermia in mice",[2]; acetylsalicylic acid = 1,1
same,"Relative activity, analgesic, painful irritation of rat's paw with electric current",[3],1
same,"Relative activity, antipyretic, yeast fever in rats",yeast fever in rats; acetylsalicylic acid = 1,1
same,embryotoxic effect,[4]; parallel comparative tests,produces an embryotoxic effect
same,"Relative therapeutic index, acute toxicity to anti-edematous action ratio (LD50/ED50)",[5],1
same,"Relative activity, analgesic, burning tail of mice",[6]; acetylsalicylic acid = 1,1
same,reduction of the reaction to a thermal irritant,[6]; 40-300 mg/kg,37-87%
same,"Relative activity, antiinflammatory, aerosol-induced edema of paw in mice (acute test)",[7],1
same,"Relative activity, antiinflammatory, aerosol-induced edema of paw in rats (subacute test)",[8]; acetylsalicylic acid = 1,1
same,"dose producing a similar effect, relative to the proposed preparation","[8]; rats, same test conditions, subacute",30 times
same,"Relative activity, analgesic, acetic acid ""writhing"" in mice",[9],1
"OC(Nc1nccs1)C(Cl)(Cl)Cl (centres unmarked) [proposed preparation, 2,2,2-trichloro-1-(2-thiazolylamino)-ethanol]",absorption from the gastrointestinal tract compared with acetylsalicylic acid,[1]; from enteral coefficient,better absorption of the preparation from the gastrointestinal tract
same,LD50,[1]; ip,708 mg/kg
same,LD50,[1]; po,1050 mg/kg
same,antibacterial action,antibacterial action,moderately pronounced antibacterial action
same,functions of the respiratory and cardiovascular systems,[10],does not affect
same,phenamine hyperthermia,"[2]; mice, same dose (100 mg/kg) followed by phenamine",do not manifest the usual hyperthermia
same,membrane-stabilizing effect (erythrocyte aggregation reaction),[11],mitigation of the erythrocyte aggregation reaction
same,reduction of the weight of the granulomas,[12],41-60%
same,contraindications,[13],No contraindications
same,influence on peripheral blood composition,[13],no influence on the peripheral blood composition
same,leukocyte count,[13],diminished to norm in leukocytosis and increased in leukopenia
same,tolerance,[13],good
same,exacerbation of the ulcerous disease,[14],did not cause an exacerbation of the ulcerous disease
same,fecal reaction to occult blood,[14],negative in all the patients
same,activity compared with acetylsalicylic acid,[15],higher activity than acetylsalicylic acid; also recorded: superior to acetylsalicylic acid in all the main effects
same,irritation of tissues,[16],does not cause irritation
same,toxic effect on cells of the amnionic membrane,[17],nor does it have any toxic effect
same,antipyretic effect compared with acetylsalicylic acid,"yeast fever in rats; rats with yeast fever, 100 mg/kg",corresponds to that produced by a 300 mg/kg dose of acetylsalicylic acid
same,"antiinflammatory activity compared with sodium salicylate, phenylbutazone, mephenamic acid (Ponstan) and brufen",[18],"higher than that of sodium salicylate, phenylbutazone, mephenamic acid (Ponstan) and brufen"
same,"patients with pronounced therapeutic effect, arthritis","[19]; arthritis of different etiology, 89 patients",68%
same,patients with similar therapeutic effect,"[19]; arthrosis, spondylosis and exacerbation of chronic interstitial pneumonia",65%
same,"number of patients with pronounced therapeutic effect, arthritis",[19]; out of 89,61
same,"number of patients with pronounced therapeutic effect, rheumatic",[19]; out of the 76 patients,61 patients
same,"drop in temperature, time",[19]; patients,towards the end of the first week of therapy
same,temperature after course,"[19]; patients, 3 to 4 week course",completely normalized
same,"general status, physical activity, symptoms of local inflammation","[19]; patients, 4th to 9th day from beginning of treatment","improvement of the patient's general status, increasing physical activity, abatement of symptoms of local inflammation"
same,ECG indices,[19]; [27],"ECG indices improved: extrasystole disappeared, symptoms of myocardial anoxia diminished"
same,pain in the region of the heart,[19]; [27],abated
same,paraclinical data: albumin content and gamma-fraction of the blood,[19]; [27],a marked tendency towards a higher albumin content and the normalization of the gamma-fraction of the blood
same,"paraclinical data: leukocytes, ESR",[19]; [27],disappearance of leukocytes drop of the ESR to normal
same,neurological status,[19]; rheumatic patients,"improvement of their neurological status was observed, manifested by diminishing asthenia and irritability"
same,"patients with pronounced therapeutic effect, rheumatic","[19]; rheumatic patients, 76 patients",80%
same,discomfort in the epigastral region,[20],1.6 % of cases
same,drug dermatitis,[20],2.4%
same,reversibility of side effects,[20],pass quickly once the preparation is discontinued
same,effect on development of the rat embryos,"[4]; 55 mg/kg, 12 days from the 9th day of pregnancy",does not affect the development of the rat embryos
same,reduction of the reaction to a thermal irritant,"[6]; oral, 10 and 20 mg/kg, an hour after administration",47-75%
same,contribution of the adrenal system to antiinflammatory effect,[21],andrenal system contributes to the proposed preparation's antiinflammatory effect
same,harmful effect on the gastrointestinal mucosa,[22],no harmful effect on the gastrointestinal mucosa
same,analgesic effect,[23],analgesic effect was proved by three methods
same,tolerance on long oral administration,[24],well tolerated
same,reduction of the symptoms of exudation,[25],17-62%
same,reduction of intensity of the exudative process,"[8]; rats, 10 mg/kg, within 3 hours after administration",reducing its intensity by half
same,picture of intoxication,"acute toxicity in cats; acute toxicity, doses in excess of 1 g/kg",pronounced inhibition in the animals into a state similar to the prenarcotic state
same,dose causing symptoms of intoxication and death,acute toxicity in cats; cats,> 1000 mg/kg
CC(C)Cc1ccc(C(C)C(=O)O)cc1 (centres unmarked) [Brufen],abdominal pain and headaches,[26],11%
same,allergic symptoms,[26],6-8%
same,"dyspepsia, gastrointestinal hemorrhages, bronchospasm, thrombocytopenia, mental disorders, exacerbation of cholecystitis",[26],11-15%

# Reference: US4159334A, “Medicinal preparation with an antiinflammatory, analgesic and antipyretic effect” (priority 1977, dated 1979)
